Measurements reported in PMC3253737 (Journal of Natural Products, 2011).
Read-outs that look alike come from different tables or passages of the source.

Legend:
MTS viability = format: cell-based; conditions: human (JMAR, MDA-1986, SKMEL-28, MRC-5) and mouse (B16F10)
[1] = test system: HNSCC (JMAR and MDA-1986), melanoma (B16F10 and SKMEL-28), and normal fetal fibroblast (MRC-5) cells; experiment: MTS viability; format: cell-based
[2] = Cytotoxicity IC50 (inactive for all cell lines used), all cell lines used (B16F10, SKMEL-28, JMAR, MDA-1986, MRC-5)

With `CC1=C(CO)C(=O)O[C@@H]([C@@H](C)[C@H]2CC[C@H]3[C@@H]4C[C@H]5O[C@]56[C@@H](O)C=CC(=O)[C@]6(CO)[C@H]4CC[C@]23C)C1` [Compound 1, 19-hydroxywithaferin A] the IC50 (MTS viability) was 0.067 to 9.3 µM.

Work on `CC1=C(C)C(=O)O[C@@H]([C@@H](C)[C@H]2CC[C@H]3[C@@H]4C[C@H]5O[C@]56[C@@H](O)C=CC(=O)[C@]6(CO)[C@H]4CC[C@]23C)C1` [Compound 2, 27-deoxy-19-hydroxywithaferin A] yielded an IC50 (MTS viability; cytotoxicity IC50) of 0.067 to 9.3 µM.

`CC1=C(CO)C(=O)O[C@@H]([C@@H](C)[C@H]2CC[C@H]3[C@@H]4CC=C5C=CC(=O)[C@]5(C)[C@H]4CC[C@]23C)C1` [Compound 6, A-nor-27-hydroxy-1-oxowitha-2,5,24-trienolide] gave an IC50 (MTS viability) of over 10 µM.

In the case of `CC1=C(CO)C(=O)O[C@@H]([C@@H](C)[C@H]2CC[C@H]3[C@@H]4C[C@H]5O[C@]56[C@@H](O)[C@@H](OS(=O)(=O)O)CC(=O)[C@]6(CO)[C@H]4CC[C@]23C)C1` [Compound 7, 2,3-dihydro-19-hydroxy-3β-O-sulfate-withaferin A], the IC50 (MTS viability; cytotoxicity IC50) is reported as 0.067 to 9.3 µM.

With `CC1=C(CO[C@@H]2O[C@H](CO)[C@@H](O[C@@H]3O[C@@H](C)[C@H](O)[C@@H](O)[C@H]3O)[C@H](O)[C@H]2O)C(=O)O[C@@H]([C@@H](C)[C@H]2CC[C@H]3[C@@H]4C[C@H]5O[C@]56[C@@H](O)C=CC(=O)[C@]6(C)[C@H]4CC[C@]23C)C1` [Compound 8, 27-O-[α-L-rhamnopyranosyl(1→4)]-β-D-glucopyranosyl-withaferin A] the “cytotoxicity relative to the aglycone withaferin A (16)” value [1] was “less cytotoxicity” and the IC50 (MTS viability; cytotoxicity IC50) was 0.067 to 9.3 µM.

With `CC1=C(CO[C@@H]2O[C@H](CO)[C@@H](O)[C@H](O)[C@H]2O)C(=O)O[C@@H]([C@@H](C)[C@H]2CC[C@H]3[C@@H]4C[C@H]5O[C@]56[C@@H](O)C=CC(=O)[C@]6(C)[C@H]4CC[C@]23C)C1` [Compound 15, 27-O-β-D-glucopyranosyl-withaferin A] the “cytotoxicity relative to the aglycone withaferin A (16)” value ([1]; MTS assay, comparison in words) was “less cytotoxicity”.

Molecule `CO[C@H]1CC(=O)[C@]2(C)[C@H]3CC[C@]4(C)[C@@H]([C@H](C)[C@H]5CC(C)=C(CO)C(=O)O5)CC[C@H]4[C@@H]3C[C@H]3O[C@]32[C@H]1O` [Compound 17, 2,3-dihydro-3β-methoxywithaferin A] has an IC50 (MTS viability; Cytotoxicity IC50 (inactive for all cell lines used)) of over 10 µM.

Work on `CC1=C(CO)C(=O)O[C@@H]([C@@H](C)[C@H]2CC[C@H]3[C@@H]4C[C@H]5O[C@]56[C@@H](O)[C@@H](O)CC(=O)[C@]6(C)[C@H]4CC[C@]23C)C1` [Compound 18, viscosalactone B] yielded an IC50 (MTS viability; [2]) of over 10 µM.

In the case of `CC1=C(CO)C(=O)O[C@@H]([C@@H](C)[C@H]2CC[C@H]3[C@@H]4C[C@H]5O[C@]56[C@@H](O)CCC(=O)[C@]6(C)[C@H]4CC[C@]23C)C1` [Compound 20, 2,3-dihydrowithaferin A], the IC50 (MTS viability; [2]) is reported as over 10 µM.

`CC1=C(CO)C(=O)O[C@@H]([C@@H](C)[C@H]2CC[C@H]3[C@@H]4C[C@@H]5O[C@@H]6CC(=O)[C@](C)([C@H]4CC[C@]23C)[C@@]5(O)[C@H]6O)C1` [Compound 21, 3α,6α-epoxy-4β,5β,27-trihydroxy-1-oxowitha-24-enolide] showed an IC50 (MTS viability; [2]) of over 10 µM.
